Laboratory results as given in patent publication US20160067246A1, “USE OF PHOSPHODIESTERASE 5A INHIBITORS FOR THE TREATMENT OF MUSCULAR DYSTROPHY” (CEDARS-SINAI MEDICAL CENTER, priority 2013, published 2016).

How the values were obtained:
Assay type in all cases: in vivo, human
[1] = tested on: patients with Becker muscular dystrophy (BMD); experiment: Functional sympatholysis: LBNP-induced decrease in forearm muscle oxygenation (NIR spectroscopy) at rest vs handgrip, tadalafil acute crossover trial
Description: Forearm muscle oxygenation was measured with near-infrared (NIR) spectroscopy, which is based on the principle that laser light with wavelengths in the 700-900 nm range easily penetrates skeletal muscle, and is absorbed by the iron-porphyrin moieties in hemoglobin and myoglobin. Changes in NIR light absorption are proportional to changes in the relative concentrations of oxygenated hemoglobin and myoglobin (HbO2 and MbO2). Because of their nearly identical absorption spectra, individual contributions of HbO2 and MbO2 cannot be determined. The NIR signals reflect changes in oxygenation occurring mainly in the microvasculature, because vessels greater than one millimeter in diameter are maximal absorbers of photons due to the high extinction coefficient of blood. Thus, NIR spectroscopy provides continuous measurement of the adequacy of tissue oxygen delivery relative to its use. […] Changes in forearm tissue oxygenation were expressed as a percentage of […] exercise was performed using a dynamometer ([…] Dynamometer modified by Stoelting, Wood Dale, Ill.). […] The pressure in the chamber was measured by a Statham transducer (Gould Inc., Oxnard, Calif.). […] Reflex vasoconstriction was measured as the LBNP-induced decrease in forearm muscle oxygenation by NIR spectroscopy; this approach provides a valid measure of reflex neurogenic vasoconstriction under these conditions (13). The BP, heart rate, handgrip force, and NIR signals were recorded in response to two minutes of LBNP applied at rest and during the third to fifth minutes of the seven-minute exercise period. […] Patients were queried about potential tadalafil-specific side-effects both for safety monitoring and to assess whether blinding was maintained. tadalafil blood levels were measured using high performance liquid chromatography/tandem mass spectrometry (NMS Labs Willow Grove, Pa.). […] Exercise-induced attenuation of reflex vasoconstriction (functional sympatholysis) was assessed by comparing the LBNP-induced AHbO2+MbO2 (% TLS) at rest vs. the LBNP-induced decrease in AHbO2+MbO2 during handgrip. […]

[2] = tested on: patients with Becker muscular dystrophy (BMD); experiment: Blood pressure, heart rate and adverse events in BMD tadalafil trial
Description: Subjects were studied in the supine position. Heart rate was measured continuously by electrocardiography and BP by automated oscillometric sphygmomanometry ([…] Monitor 300 Series, […].). […] The order of tadalafil/placebo was random. The research pharmacist placed tadalafil tablets or lactose powder (placebo) in opaque capsules to blind patients and investigators, both for the test dose and study dose of drug or placebo. Patients were queried about potential tadalafil-specific side-effects both for safety monitoring and to assess whether blinding was maintained. tadalafil blood levels were measured using high performance liquid chromatography/tandem mass spectrometry (NMS Labs Willow Grove, Pa.).

[3] = tested on: boys with Duchenne muscular dystrophy (DMD); experiment: Exercise-induced hyperemia: brachial artery blood flow by Doppler ultrasound and hemodynamics, rest and post handgrip; set-up: key to BA velocity: mean blood velocity in cm/s; Heart rate: unit not given here
Description: Subjects were studied in the supine position. Heart rate was measured continuously by electrocardiography, and blood pressure measured by automated oscillometric sphygomanometry using a child's cuff ([…] Monitor 300 Series). Brachial artery mean blood velocity (MBV) was measured from the exercising arm using pulsed-Doppler ultrasonography (Siemens iE33). Data were acquired continuously with a 9-MHz probe with a 60° angle of insonation, placed on the skin surface distal to the axilla. The ultrasound gate was optimized to ensure complete insonation of the entire vessel cross-section with constant intensity. The Doppler audio signal was converted to a real-time flow velocity signal using a validated Doppler audio converter,^8B and recorded using a PowerLab data acquisition system (ADInstruments, CO). Brachial artery diameter was measured by B-mode imaging in triplicate at rest. […] Brachial artery blood flow was calculated as MBV (cm/s)·πr^2·60, where r is radius of the brachial artery. […] exercise was performed with a dynamometer ([…] Dynamometer modified by Stoelting). To determine maximal voluntary contraction (MVC), each subject was asked to grip the dynamometer as hard as possible. […] Vascular conductance was calculated as forearm blood flow divided by mean arterial pressure. […] Patients then crossed over 2 weeks later for the opposite drug. […] Patients were queried about potential side-effects throughout the study visit. Baseline characteristics of patients and controls were compared using Student's t test. Exercise-induced attenuation of reflex vasoconstriction (functional sympatholysis) was assessed by comparing the LBNP-induced AHbO2+MbO2 (% TLS) at rest versus the LBNP-induced decrease in ΔHbO2+MbO2 during handgrip. Group differences in ΔHbO2+MbO2 were assessed using a Student's t test. The drug treatment effect on LBNP-induced Δ·HbO2+MbO2 (% TLS) at rest versus the LBNP-induced decrease in ΔHbO2+MbO2 during handgrip was compared to baseline for each patient using a Student's t test. The group difference in the % Δ in brachial artery blood flow was assessed using a student's t test. The drug treatment effect on the % Δ in brachial artery blood flow was compared using a student's t test. All analyses were performed in SigmaPlot. Data are expressed as mean±SEM, unless otherwise specified.

**Q.** CN1CC(=O)N2[C@H](c3ccc4c(c3)OCO4)c3[nH]c4ccccc4c3C[C@@H]2C1=O [tadalafil] was tested. Which “attenuation of the reflex (LBNP) decrease in muscle oxygenation during handgrip” value ([1]; 10 BMD patients, single 20 mg oral tadalafil, >=3 h after dose) did it give?
**A.** Its value is 52±12%.

**Q.** And the “LBNP-induced ΔHbO2+MbO2 (% TLS) at rest” value ([1]; BMD patients, 20 mg tadalafil, at rest)?
**A.** The value was −17±2%.

**Q.** What about the “LBNP-induced ΔHbO2+MbO2 (% TLS) during handgrip” value ([1]; BMD patients, 20 mg tadalafil, during handgrip 20% MVC) of the same compound?
**A.** Its value is −9±2%.

**Q.** And the “adverse events or side-effects” value ([2]; 10 mg test dose and 20 mg study dose)?
**A.** Its value is “no adverse events or side-effects”.

**Q.** And the “diastolic blood pressure post-tadalafil” value ([2]; post-tadalafil (pre 72±2), P>0.05)?
**A.** The value was 73±3 mm Hg.

**Q.** What about the heart rate post-tadalafil ([2]; post-tadalafil (pre 84±4), P>0.05) of the same compound?
**A.** Its heart rate post-tadalafil is 80±4 beats per minute.

**Q.** And the “systolic blood pressure post-tadalafil” value ([2]; post-tadalafil (pre 116±3), P>0.05)?
**A.** Its value is 114±4 mmHg.

**Q.** What about the “BA VC (vascular conductance)” value ([3]; 0.5 mg/kg, Post-exercise) of the same compound?
**A.** Its value is 2.6 ± 0.4 ml/min/mmHg.

**Q.** And the BA blood flow ([3]; 0.5 mg/kg, Post-exercise)?
**A.** The BA blood flow was 184 ± 24 mL/min.

**Q.** What about the BA velocity ([3]; 0.5 mg/kg, Post-exercise) of the same compound?
**A.** Its BA velocity is 38 ± 5.

**Q.** What about the Heart rate ([3]; 0.5 mg/kg, Post-exercise) of the same compound?
**A.** The Heart rate was 94 ± 3.

**Q.** What about the MAP ([3]; 0.5 mg/kg, Post-exercise) of the same compound?
**A.** The MAP was 72 ± 2 mmHg.

**Q.** And the “BA VC (vascular conductance)” value ([3]; 0.5 mg/kg, Rest)?
**A.** The value was 1.7 ± 0.3 ml/min/mmHg.

**Q.** And the BA blood flow ([3]; 0.5 mg/kg, Rest)?
**A.** The BA blood flow was 118 ± 15 mL/min.

**Q.** And the BA velocity ([3]; 0.5 mg/kg, Rest)?
**A.** The BA velocity was 26 ± 4.

**Q.** What about the Heart rate ([3]; 0.5 mg/kg, Rest) of the same compound?
**A.** The Heart rate was 91 ± 3.

**Q.** And the MAP ([3]; 0.5 mg/kg, Rest)?
**A.** The MAP was 74 ± 3 mmHg.

**Q.** And the “BA VC (vascular conductance)” value ([3]; 1.0 mg/kg, Post-exercise)?
**A.** Its value is 2.5 ± 0.3 ml/min/mmHg.

**Q.** What about the BA blood flow ([3]; 1.0 mg/kg, Post-exercise) of the same compound?
**A.** The BA blood flow was 170 ± 17 mL/min.

**Q.** And the BA velocity ([3]; 1.0 mg/kg, Post-exercise)?
**A.** The BA velocity was 35 ± 4.

**Q.** And the Heart rate ([3]; 1.0 mg/kg, Post-exercise)?
**A.** The Heart rate was 92 ± 4.

**Q.** What about the MAP ([3]; 1.0 mg/kg, Post-exercise) of the same compound?
**A.** Its MAP is 71 ± 3 mmHg.

**Q.** And the “BA VC (vascular conductance)” value ([3]; 1.0 mg/kg, Rest)?
**A.** The value was 1.5 ± 0.3 ml/min/mmHg.

**Q.** What about the BA blood flow ([3]; 1.0 mg/kg, Rest) of the same compound?
**A.** Its BA blood flow is 104 ± 14 mL/min.

**Q.** And the BA velocity ([3]; 1.0 mg/kg, Rest)?
**A.** The BA velocity was 21 ± 3.

**Q.** What about the Heart rate ([3]; 1.0 mg/kg, Rest) of the same compound?
**A.** Its Heart rate is 91 ± 3.

**Q.** And the MAP ([3]; 1.0 mg/kg, Rest)?
**A.** The MAP was 71 ± 2 mmHg.
